Laboratory results: US11083197B2, “Herbicidal composition comprising chromone derivatives and a method for weed control” (INVESTIGACIONES BIOLÓGICAS EN AGROQUÍMICOS ROSARIO S.A., priority 2015, dated 2021)

Tests used:
cucumber cotyledon disks [1] = experiment: Detection and measurement of reactive oxygen species (DCFDA); assay type: cell-based; conditions: 300 μM; for ROS levels: 16 h darkness then high light intensity 5 h; for ROS generation: complete darkness for 30 h
Description: ROS cellular localization was determined by confocal microscopy using the fluorescent probe 2′,7′-dichlorofluorescein diacetate (DCFDA). Cucumber cotyledon disks (1 cm) were treated as described for the electrolyte leakage assay. Five disks were placed in 5 cm-Petri plates and exposed to different dilutions of compounds of formulas III and IV (0, 100 and 300 μM). Disks were incubated in darkness for 16 h before exposure to high light intensity for 5 h, or in darkness for 30 h. As positive control, disks were exposed to the same solvent as treated tissues but with 10 mM hydrogen peroxide (H2O2) for 30 min in the light. After each treatment, they were vacuum-infiltrated in the dark with 50 μM DCFDA in 10 mM Tris-HCl pH 7.5, and ROS were visualized in an Eclipse TE-2000-E2 Nikon confocal microscope with excitation at 488 nm and emission at 515/530 nm. Green fluorescence intensities were quantified using the image processing package Fiji of ImageJ software.

cucumber leaf disks = experiment: Cell death determination by Evans blue staining, leaf disks; assay type: cell-based; conditions: 7 days; for increase in relative cell death with respect to the control: 100 μM; for increase in relative cell death: 300 μM
Description: (§1) To evaluate cell death in roots, onion seeds were germinated and treated as described in postemergence assay with weed species. Onion seedlings were exposed to different doses of compounds of formulas III and IV (0, 100 and 300 μM) during 4 days. For the experiment with leaf disks 3-weeks-cucumber plants were used. One disk (1 cm) was placed in each well of a 12-well plate together with 1 mL of a 2% w/v sucrose/1 mM MES, pH 6.5 solution containing each of the compounds tested at the appropriate concentration (0, 100 or 300 μM) and acetone (1% v/v). Each assay was performed with leaf disks from different plants. Plates were sealed with Parafilm and incubated in a growth chamber at 21-27° C. with a 16/8 h light/dark cycle for 7 days.
(§2) Cell death was determined by Evans blue staining.^26 Root tips (5-mm sections) and leaf disks were incubated for 30 min in 0.25% w/v Evans blue aqueous solution at 25° C. on a rotary shaker. After staining, unbound dye was removed by extensive washing with deionized water. Three root tips (3 replicates) or one leaf disk (4 replicates) were ground in a tissue grind tube with 500 μL 1% w/v sodium dodecyl sulfate (SDS). The resulting suspension was centrifuged for 20 min at 20,000 g and the supernatant was used for dye quantification by monitoring the absorbance at 600 and 680 nm. Relative cell death was expressed as A600 for root tips and A600/A680 ratios for leaf disks.

onion root tips = experiment: Cell death determination by Evans blue staining, root tips; assay type: cell-based, Allium cepa; conditions: 4 days; for increase in relative cell death: 100 μM; for increase in relative cell death compared to 100 μM: 300 μM
Description: as §1, §2

[2] = test system: A. cepa root meristem cells; experiment: Effect on cell division (mitotic index analysis); assay type: cell-based, Allium cepa; conditions: for inhibition of cell division: 0 to 1000 μM; for reversibility of inhibition of cellular division: 100 μM, seeds washed at 3 days; for proportion of cells with abnormal configurations: chromosome aberrations, nuclear abnormalities, micronuclei
Description: Onion seeds (Allium Cepa L. Evergreen Longwhite Bunching, Burpee & Co, 2012, EE.UU) germination was carried out for 7 days with a 14-h photoperiod in 9-cm-diameter Petri dishes on a filter paper disk that was moistened with a dilution (2.5 mL) of test compound or control. Stock solutions of test compounds (100×) were prepared in acetone, and aliquots were diluted in distilled water to get the final concentration. The control consisted of water with the same proportion of acetone (1% v/v) applied in the treatments.
At 7 days of incubation, samples were processed for mitotic index analysis according to Armbruster et al.^25 Twenty root tips (1-cm sections) were fixed in glacial acetic acid:absolute ethanol (1:3 v/v) for 30 min. The segments were incubated with 5 N HCl at 25° C. for 1 h, and washed several times with distilled water. After that, segments were stained with Schiff's reagent for 45 min in the dark at 25° C. Stained meristematic regions were identified as purple tips. The root segments were transferred with tweezers to a drop of 45% acetic acid in water on a microscope slide. The tips were cut with a razor blade, and a cover slip was carefully placed over the tips and gently squashed by applying slight and constant pressure directly over the tissues. The edge of the cover slip was sealed with nail polish to delay the evaporation of acetic acid. The mitotic index was calculated by tallying the cells in various stages of mitosis. At least 1,000 cells/slide and in triplicate (3,000 cells per treatment) were counted for suitable statistical analysis of data. An Olympus BX60 microscope (Olympus, Center Valley) was used, and cells with abnormal mitotic configurations were counted as a separate class.
This procedure was slightly modified to evaluate if cell division inhibition caused by furanochromones was reversible. For this experiment onion seeds were incubated with solutions containing compounds of formulas III and IV for 3 days. After this period, all seeds were washed three times with distilled water and placed in new Petri dishes on moistened filter paper disks with distilled water (Wash+treatment). Seeds were then incubated for 4 more days, after which a mitotic index analysis was performed. As a reference to compare results, another set of onion seeds was kept with test compounds or control for 7 days (Wash−treatment) before analysis.

cucumber cotyledon disks [3] = experiment: Photosynthetic efficiency (chlorophyll fluorescence, ETR); assay type: cell-based; conditions: after 24 h of incubation in the light (42 h total)
Description: The effects of pure compounds of formulas III and IV were evaluated by chlorophyll fluorescence measurements according to Dayan and Zaccaro.^24 Cucumber cotyledon disks were exposed to different dilutions of each furanochromone (10, 30, 100 and 300 μM). Control tissues were exposed to the same solvent as treated tissues but without the test compounds. The cotyledon disks were incubated in darkness for 18 h before exposure to light for 24 h. Photosynthetic quantum yield and electron transport rate (ETR) were measured. ETR values were expressed as percent of the ETR average values observed in control treatments. A time-course experiment was performed by measuring induced fluorescence of cotyledon disks after treatment at 3 h in darkness (start), after 18 h in darkness, after which the samples were placed in the light, and further measurements were made after 6 and 24 h of light exposure. The results of this experiment are shown in FIG. 16 (A: khellin [compound of formula III] and B: visnagin [compound of formula IV]). Three replicates were performed for each experiment. Bars represent, from left to right in each grouping, start, 18 h dark, 6 h light, and 24 h light.

ryegrass = experiment: Postemergence bioassay with ryegrass in Petri dishes; assay type: in vivo; conditions: Lolium multiflorum, post-emergence; 500 μM; day 6 (4 days after application); read-out: Growth inhibition (%) as percentage of control
Description: Plant length was measured at day 6 (4 days after application of the compounds)
Plant length's axis starts in 5 mm because seeds were pre-incubated in water, so all seedlings were around 5 mm long at the beginning of the treatment.

COc1c2occc2c(OC)c2c(=O)cc(C)oc12 [Formula III, 4,9-dimethoxy-7-methyl-5H-furo[3,2-g]chromen-5-one]
ROS levels (cucumber cotyledon disks [1]): significantly higher than in the control | ROS generation (cucumber cotyledon disks [1]): not detected | increase in relative cell death with respect to the control (cucumber leaf disks): ~35% | increase in relative cell death (cucumber leaf disks): 3.5 fold | increase in relative cell death (onion root tips): two-fold | increase in relative cell death compared to 100 μM (onion root tips): two-fold | inhibition of cell division ([2]; 7 days): inhibited cell division in a dose-dependent manner | reversibility of inhibition of cellular division [2]: irreversible | proportion of cells with abnormal configurations [2]: higher than in the control | reduction of electron transport rate (ETR) (cucumber cotyledon disks [3]; 100 μM): ~35% | reduction of electron transport rate (ETR) (cucumber cotyledon disks [3]; 300 μM): ~50% | inhibition at 500 µM (ryegrass): 25%

COc1c2ccoc2cc2oc(C)cc(=O)c12 [Formula IV, 4-methoxy-7-methyl-5H-furo[3,2-g]chromen-5-one]
ROS levels (cucumber cotyledon disks [1]): significantly higher than in the control | ROS generation (cucumber cotyledon disks [1]): not detected | increase in relative cell death with respect to the control (cucumber leaf disks): ~35% | increase in relative cell death (cucumber leaf disks): 3.5 fold | increase in relative cell death (onion root tips): two-fold | increase in relative cell death compared to 100 μM (onion root tips): two-fold | inhibition of cell division ([2]; 7 days): inhibited cell division in a dose-dependent manner | reversibility of inhibition of cellular division [2]: irreversible | inhibition of onion cell division ([2]; 300 μM, 7 days): completely inhibited | proportion of cells with abnormal configurations [2]: higher than in the control | reduction of electron transport rate (ETR) (cucumber cotyledon disks [3]; 100 μM): ~35% | reduction of electron transport rate (ETR) (cucumber cotyledon disks [3]; 300 μM): ~50% | inhibition at 500 µM (ryegrass): 66%
